PMC9078697, “Discovery and preliminary SAR of 14-aryloxy-andrographolide derivatives as antibacterial agents with immunosuppressant activity” (RSC Advances, 2018)

Columns and labels:
Assay type in all cases: cell-based
E. faecalis = assay: Bacteriostatic screening (growth, OD630) against E. faecalis; settings: for IC50: 24 h, IC50 generated when inhibition at 250 μM was higher than 80%
Procedure: (§1) The strategy in this study was to submit these synthesized compounds to a preliminary screening test against E. coli, S. aureus and E. faecalis (ciprofloxacin was used as a reference compound; see Table 1). […] The tested compound or ciprofloxacin (positive drug) was dissolved in DMSO and diluted with LB liquid medium into a stock solution containing 20% DMSO before use; the stock solution of the carrier was 20% DMSO in LB liquid medium. All the experiments, including blank controls, were performed in triplicate. Bacteriostatic screening was performed by applying a modified protocol of the National Committee on Clinical Laboratory Standards (NCCLS).[29] Briefly, E. coli, S. aureus and E. faecalis cells (American Type Culture Collection, ATCC) were grown in LB plate medium for one passage, then seeded in LB liquid medium and cultured at 37 °C for 12 h. After being diluted 1000 times, 190 μL diluted cells were aliquoted to 96-well plates; then, 10 μL stock solution of carrier or a gradient amount of the tested compound or the positive compound, ciprofloxacin, were added; the final concentration of DMSO was 1% in all wells. The blank controls contained 1% DMSO and LB medium but no bacterial cells.

E. coli = assay: Bacteriostatic screening (growth, OD630) against E. coli; settings: for inhibition rate EC (symbol /): at 250 μM of tested compound
Procedure: as §1

S. aureus = assay: Bacteriostatic screening (growth, OD630) against S. aureus; settings: for inhibition rate SA (symbol /): at 250 μM of tested compound
Procedure: as §1

[1] = at 250 μM of the tested compound, 250 µM
[2] = at 250 μM of the tested compound

Compound	IC50 (E. faecalis)	inhibition rate EC (symbol /) (E. coli)	inhibition rate (%) EC (E. coli; [2])	inhibition rate (%) SA (S. aureus; [2])	also measured
C=C1CCC2C(C)(CO)C(O)CCC2(C)C1CC=C1C(=O)OCC1Oc1ccc(C(=O)OCC)cc1 (stereo not drawn) [6a9, (14α)-(4′-Carboxyethyl ester)phenoxy-andrographolide]	38.3 ± 5.9 µM	/ (“/”represents no inhibition or lower than 10% inhibition rate at 250 μM of tested compound)	–	–	inhibition rate SA (symbol /) (S. aureus): / (“/”represents no inhibition or lower than 10% inhibition rate at 250 μM of tested compound)
C=C1CCC2C(C)(CO)C(O)CCC2(C)C1CC=C1C(=O)OCC1Oc1ccccc1OC (stereo not drawn) [6a12, (14α)-(2′-Methoxy)phenoxy-andrographolide]	75.6 ± 17.8 µM	/ (“/”represents no inhibition or lower than 10% inhibition rate at 250 μM of tested compound)	–	–	inhibition rate (%) SA (S. aureus; [1]): (14) %
C=C1CCC2C(C)(CO)C(O)CCC2(C)C1CC=C1C(=O)OCC1Oc1cccnc1[N+](=O)[O-] (stereo not drawn) [6a15, (14α)-(2′-Nitro-pyridinyl-3′-oxy)andrographolide]	56.7 ± 5.5 µM	–	(14) %	–	inhibition rate (%) SA (S. aureus; [1]): (13) %
C=C1CCC2C(C)(CO)C(O)CCC2(C)C1CC=C1C(=O)OCC1Oc1ccnc2ccccc12 (stereo not drawn) [6a16, (14α)-(Quinolyl-4′-oxy)andrographolide]	65.8 ± 13.5 µM	/ (“/”represents no inhibition or lower than 10% inhibition rate at 250 μM of tested compound)	–	(22) %	–
C=C1CCC2C(C)(CO)C(O)CCC2(C)C1CC=C1C(=O)OCC1Oc1ccc([N+](=O)[O-])cc1F (stereo not drawn) [6b2, (14β)-(2′-Fluoro-4′-nitro)phenoxy-andrographolide]	24.4 ± 3.2 µM	–	–	–	inhibition rate (%) EC (E. coli; [1]): (42) %; inhibition rate (%) SA (S. aureus; [1]): (25) %
C=C1CCC2C(C)(CO)C(O)CCC2(C)C1CC=C1C(=O)OCC1Oc1ccc([N+](=O)[O-])c(F)c1 (stereo not drawn) [6b4, (14β)-(3′-Fluoro-4′-nitro)phenoxy-andrographolide]	19.6 ± 2.7 µM	–	(60) %	(28) %	–
C=C1CCC2C(C)(CO)C(O)CCC2(C)C1CC=C1C(=O)OCC1Oc1ccc([N+](=O)[O-])c(OC)c1 (stereo not drawn) [6b5, (14β)-(3′-Methoxy-4′-nitro)phenoxy-andrographolide]	21.8 ± 2.5 µM	–	–	–	inhibition rate (%) EC (E. coli; [1]): (23) %; inhibition rate (%) SA (S. aureus; [1]): (37) %
C=C1CCC2C(C)(CO)C(O)CCC2(C)C1CC=C1C(=O)OCC1Oc1ccccc1[N+](=O)[O-] (stereo not drawn) [6b6, (14β)-(2′-Nitro)phenoxy-andrographolide]	15.9 ± 9 µM	–	(28) %	(12) %	–
C=C1CCC2C(C)(CO)C(O)CCC2(C)C1CC=C1C(=O)OCC1Oc1cccc([N+](=O)[O-])c1 (stereo not drawn) [6b7, (14β)-(3′-Nitro)phenoxy-andrographolide]	17.8 ± 4.2 µM	/ (“/”represents no inhibition or lower than 10% inhibition rate at 250 μM of tested compound)	–	26%	–
C=C1CCC2C(C)(CO)C(O)CCC2(C)C1CC=C1C(=O)OCC1Oc1ccccc1C(=O)OCC (stereo not drawn) [6b8, (14β)-(2′-Carboxyethyl ester)phenoxy-andrographolide]	89.7 ± 12 µM	–	(21) %	–	inhibition rate SA (symbol /) (S. aureus): / (“/”represents no inhibition or lower than 10% inhibition rate at 250 μM of tested compound)
C=C1CCC2C(C)(CO)C(O)CCC2(C)C1CC=C1C(=O)OCC1Oc1ccc(C(=O)OCC)cc1 (stereo not drawn) [6b9, (14β)-(4′-Carboxyethyl ester)phenoxy-andrographolide]	53.3 ± 4.1 µM	–	(17) %	(40) %	–
C=C1CCC2C(C)(CO)C(O)CCC2(C)C1CC=C1C(=O)OCC1Oc1ccc(C#N)cc1 (stereo not drawn) [6b10, (14β)-(4′-Cyano)phenoxy-andrographolide]	72.1 ± 9.4 µM	–	(39) %	(29) %	–
C=C1CCC2C(C)(CO)C(O)CCC2(C)C1CC=C1C(=O)OCC1Oc1ccc(OC)cc1 (stereo not drawn) [6b11, (14β)-(4′-Methoxy)phenoxy-andrographolide]	–	/ (“/”represents no inhibition or lower than 10% inhibition rate at 250 μM of tested compound)	–	–	inhibition rate (%) EF (E. faecalis; [2]): (17) %; inhibition rate SA (symbol /) (S. aureus): / (“/”represents no inhibition or lower than 10% inhibition rate at 250 μM of tested compound)
C=C1CCC2C(C)(CO)C(O)CCC2(C)C1CC=C1C(=O)OCC1Oc1ccccc1OC (stereo not drawn) [6b12, (14β)-(2′-Methoxy)phenoxy-andrographolide]	20.8 ± 4.5 µM	–	(12) %	–	inhibition rate (%) SA (S. aureus; [1]): (13) %
C=C1CCC2C(C)(CO)C(O)CCC2(C)C1CC=C1C(=O)OCC1Oc1cccc(OC)c1 (stereo not drawn) [6b13, (14β)-(3′-Methoxy)phenoxy-andrographolide]	138 ± 5.4 µM	–	15%	13%	–
C=C1CCC2C(C)(CO)C(O)CCC2(C)C1CC=C1C(=O)OCC1Oc1cccc2ccccc12 (stereo not drawn) [6b14, (14β)-(Naphthyl-1′-oxy)andrographolide]	–	–	(35) %	(18) %	inhibition rate (%) EF (E. faecalis; [2]): (50) %
C=C1CCC2C(C)(CO)C(O)CCC2(C)C1CC=C1C(=O)OCC1Oc1cccnc1[N+](=O)[O-] (stereo not drawn) [6b15, (14β)-(2′-Nitro-pyridinyl-3′-oxy)andrographolide]	29.3 ± 2.1 µM	–	(14) %	–	inhibition rate (%) SA (S. aureus; [1]): (41) %
C=C1CCC2C(C)(CO)C(O)CCC2(C)C1CC=C1C(=O)OCC1Oc1ccnc2ccccc12 (stereo not drawn) [6b16, (14β)-(Quinolyl-4′-oxy)andrographolide]	58.5 ± 4.2 µM	/ (“/”represents no inhibition or lower than 10% inhibition rate at 250 μM of tested compound)	–	–	inhibition rate SA (symbol /) (S. aureus): / (“/”represents no inhibition or lower than 10% inhibition rate at 250 μM of tested compound)
C=C1CC[C@H]2[C@@](C)(CCC(=O)[C@@]2(C)CO[Si](C)(C)C(C)(C)C)[C@@H]1C/C=C1/C(=O)OC[C@@H]1Oc1cccc2cccnc12 [8b2, (14β)-(quinolyl-8′-oxy)-3-keto-19-(t-butyldimethylsilyloxy)andrographolide]	–	–	–	–	inhibition at 250 µM (E. faecalis; Enterococcus faecalis, at 250 μM of the tested compound, read-out: inhibition rate (%) EF): 71%; inhibition at 250 µM (E. coli; Escherichia coli, at 250 μM of the tested compound, read-out: inhibition rate (%) EC): 25%; inhibition at 250 µM (S. aureus; Staphylococcus aureus, at 250 μM of the tested compound, read-out: inhibition rate (%) SA): 28%
O=C(O)c1cn(C2CC2)c2cc(N3CCNCC3)c(F)cc2c1=O [Ciprofloxacin, reference compound]	–	–	–	–	IC50 (E. faecalis; Enterococcus faecalis): 2.3 ± 0.6 µM; IC50 (E. coli; Escherichia coli, 24 h, IC50 generated when inhibition at 250 μM was higher than 80%): 0.31 ± 0.06 µM; IC50 (S. aureus; Staphylococcus aureus, 24 h, IC50 generated when inhibition at 250 μM was higher than 80%): 0.4 ± 0.06 µM
(14α)-(2′-Carboxy ethyl ester-4′-nitro)phenoxy-andrographolide [6a1]	72.2 ± 9.2 µM	/ (“/”represents no inhibition or lower than 10% inhibition rate at 250 μM of tested compound)	–	(10) %	–
(14α)-(2′-Fluoro-4′-nitro)phenoxy-3,19-acetonylidene andrographolide [5a2]	56.7 ± 6.5 µM	–	(20) %	(20) %	–
(14β)-(2′-Carboxy ethyl ester)phenoxy-3,19-acetonylidene andrographolide [5b8]	–	/ (“/”represents no inhibition or lower than 10% inhibition rate at 250 μM of tested compound)	–	–	inhibition rate (%) EF (E. faecalis; [2]): (22) %; inhibition rate SA (symbol /) (S. aureus): / (“/”represents no inhibition or lower than 10% inhibition rate at 250 μM of tested compound)
(14β)-(2′-Carboxy ethyl ester-4′-nitro)phenoxy-andrographolide [6b1]	27.7 ± 3.5 µM	–	(17) %	(40) %	–
(14β)-(2′-Nitro)phenoxy-3,19-acetonylidene andrographolide [5b6]	–	/ (“/”represents no inhibition or lower than 10% inhibition rate at 250 μM of tested compound)	–	–	inhibition rate (%) EF (E. faecalis; [2]): 43%; inhibition rate SA (symbol /) (S. aureus): / (“/”represents no inhibition or lower than 10% inhibition rate at 250 μM of tested compound)
(14β)-(3′-Fluoro-4′-nitro)phenoxy-3,19-acetonylidene andrographolide [5b4]	–	–	(19) %	(15) %	inhibition rate (%) EF (E. faecalis; [2]): (73) %
(14β)-(4′-Carboxy ethyl ester)phenoxy-3,19-acetonylidene andrographolide [5b9]	–	/ (“/”represents no inhibition or lower than 10% inhibition rate at 250 μM of tested compound)	–	(15) %	inhibition rate (%) EF (E. faecalis; [2]): (42) %
(14β)-(4′-Cyano)phenoxy-3,19-acetonylidene andrographolide [5b10]	–	–	(20) %	(22) %	inhibition rate (%) EF (E. faecalis; [2]): (46) %
(14β)-(Quinolyl-4′-oxy)-3,19-acetonylidene andrographolide [5b16]	15.5 ± 4.2 µM	/ (“/”represents no inhibition or lower than 10% inhibition rate at 250 μM of tested compound)	–	–	inhibition rate SA (symbol /) (S. aureus): / (“/”represents no inhibition or lower than 10% inhibition rate at 250 μM of tested compound)
